Reference: ChEMBL document CHEMBL1141004, “N-((8-hydroxy-5-substituted-quinolin-7-yl)(phenyl)methyl)-2-phenyloxy/amino-acetamide inhibitors of ADAMTS-5 (Aggrecanase-2)” (Bioorg Med Chem Lett, 2008)

What was measured:
[1] = Metabolic stability in rat liver microsomes assessed as half life; format: ADME, Microsome
Cytochrome P450 3A4 = Cytochrome P450 3A4 (Homo sapiens, UniProt P08684); test: Inhibition of CYP3A4 at 30 uM by FRET assay; format: ADME
[2] = target: T1, A disintegrin and metalloproteinase with thrombospondin motifs 5 (Homo sapiens, UniProt Q9UNA0); test: Inhibition of ADAMTS5 by FRET assay
T1 sequence (Q9UNA0 whole entry): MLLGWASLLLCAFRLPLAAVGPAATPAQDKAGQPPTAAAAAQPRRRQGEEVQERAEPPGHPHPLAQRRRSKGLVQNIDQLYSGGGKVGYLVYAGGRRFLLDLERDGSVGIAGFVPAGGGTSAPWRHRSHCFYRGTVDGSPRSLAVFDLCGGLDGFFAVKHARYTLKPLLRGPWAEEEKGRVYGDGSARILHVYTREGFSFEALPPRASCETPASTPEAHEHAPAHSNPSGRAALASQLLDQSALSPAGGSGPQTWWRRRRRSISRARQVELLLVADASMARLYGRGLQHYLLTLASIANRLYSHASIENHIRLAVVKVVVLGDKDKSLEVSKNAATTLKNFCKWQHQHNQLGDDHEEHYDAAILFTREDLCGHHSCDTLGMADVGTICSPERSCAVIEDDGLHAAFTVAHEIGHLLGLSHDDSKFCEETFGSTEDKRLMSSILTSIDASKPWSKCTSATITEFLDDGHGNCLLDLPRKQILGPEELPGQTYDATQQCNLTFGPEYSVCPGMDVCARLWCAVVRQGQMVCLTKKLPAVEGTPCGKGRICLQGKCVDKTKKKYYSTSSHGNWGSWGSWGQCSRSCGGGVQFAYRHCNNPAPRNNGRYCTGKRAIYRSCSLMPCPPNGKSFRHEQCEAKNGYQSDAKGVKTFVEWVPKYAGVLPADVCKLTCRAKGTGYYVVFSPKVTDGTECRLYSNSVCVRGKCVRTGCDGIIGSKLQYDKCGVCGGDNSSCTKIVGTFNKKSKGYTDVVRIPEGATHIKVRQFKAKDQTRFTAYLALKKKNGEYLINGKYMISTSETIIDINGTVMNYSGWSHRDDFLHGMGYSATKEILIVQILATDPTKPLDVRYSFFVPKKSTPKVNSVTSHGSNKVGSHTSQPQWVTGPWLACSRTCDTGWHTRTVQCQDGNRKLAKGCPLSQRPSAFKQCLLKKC

Cytochrome P450 3A4, sequence (P08684 whole entry): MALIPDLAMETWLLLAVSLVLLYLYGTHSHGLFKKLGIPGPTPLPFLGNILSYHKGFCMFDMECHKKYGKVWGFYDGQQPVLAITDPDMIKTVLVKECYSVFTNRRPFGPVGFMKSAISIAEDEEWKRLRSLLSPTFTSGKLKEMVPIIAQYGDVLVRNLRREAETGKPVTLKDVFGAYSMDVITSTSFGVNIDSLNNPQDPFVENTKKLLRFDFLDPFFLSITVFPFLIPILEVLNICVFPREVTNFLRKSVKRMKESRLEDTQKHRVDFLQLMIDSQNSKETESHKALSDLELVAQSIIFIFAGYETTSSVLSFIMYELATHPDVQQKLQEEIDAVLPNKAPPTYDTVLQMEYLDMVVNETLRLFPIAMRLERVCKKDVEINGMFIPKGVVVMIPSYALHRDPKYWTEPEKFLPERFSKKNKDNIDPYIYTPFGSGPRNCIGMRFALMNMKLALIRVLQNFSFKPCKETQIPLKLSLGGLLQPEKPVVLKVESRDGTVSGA

half-life [1]	inhibition (INH) (Cytochrome P450 3A4)	IC50 [2]	SMILES
30 min	19%	> 10 µM	Cc1cc(OCC(=O)NC(c2cccc([N+](=O)[O-])c2)c2cc(Cl)c3cccnc3c2O)ccc1Cl (stereo unspecified)
9 min	25%	> 10 µM	COc1ccc(C(NC(=O)COc2ccc(Cl)c(C)c2)c2cc(Cl)c3cccnc3c2O)cc1 (stereo unspecified)
